Data: US20160052926A1, “NOVEL PYRIMIDINE AND PYRIDINE COMPOUNDS AND USAGE THEREOF” (HUTCHISON MEDIPHARMA LIMITED, priority 2013, published 2016)
Read-outs that look alike come from different tables or passages of the source.

What was measured:
FGFR3 kinase = FGFR3 kinase (Homo sapiens, UniProt P22607); assay: Z-Lyte Kinase Assay of FGFR3; type: biochemical
Description: Z-Lyte Kinase Assay of FGFR3
The final concentrations are 1, 0.33, 0.11, 0.037, 0.012, 0.004, 0.0014, 0.00046 μM, and the final concentration of DMSO is 2%. • 3) Kinase/Peptide Mixture (P/K solution): Prepare Kinase/Peptide Mixture by diluting the kinase to 0.7 μg/ml and the Z-LYTE™ Tyr 4 peptide to 4 μM in 1.33× Kinase Buffer. Mix gently by pipetting. • 4) Phospho-peptide Solution (PP solution): Add 0.4 μl of Z-LYTE™ Tyr 4 Phospho-peptide to 99.6 μl of 1.33× Kinase Buffer. • 5) ATP Solution: Prepare ATP Solution by diluting the 10 mM of ATP in 1.33× Kinase Buffer to 300 uM. • 6) Development Solution: Dilute Development Reagent B with Development Buffer as 1:128.
Shake the plate for 30 Sec and centrifuge (1500 rpm, 1 min) • Seal the plate to protect from the light and incubate the plate for 1 hour at RT (25-30[…]) • 2) Development reaction • Add 5 μl of the Development solution to all wells • Shake the plate for 30 Sec and centrifuge (1500 rpm, 1 min) • Seal the plate to protect from the light and incubate the plate for 1 hour at RT (25-30[…]) • 3) Stop and read • Add 5 μl of the Stop reagent to all wells • Shake the plate for 30 Sec and centrifuge (1500 rpm, 1 min) • Measure the value of Coumarin (Ex400 nm, Em445 nm) and fluorescein (Ex400 nm, Em520 nm), respectively.
Inhibition rate(IR)=1−%Photest Cpd/%PhoC2
• determined with add-in software for Microsoft Excel, XLfit™ (version 2.0) from ID Business Solutions (Guildford, UK)

KG-1 = assay: Cellular Proliferation Assay (Cell Counting Kit-8), KG-1; type: cell-based; conditions: Homo sapiens, KG1 cells, 72 hours
Description: (§1) Cellular Proliferation Assay
(§2) • KG-1 (ATCC Accession No. CCL-246), • SNU-16 (ATCC Accession No. CRL-5974), • RT-112 (ECACC Accession No. 85061106)
(§3) • FGFR related cancer cell proliferation is measured in 96-well plates using Cell Counting Kit-8 (Dojindo CK04-13). • Seed 30000 cells/well of KG1, 5000 cells/well of SNU16, and 1000 cells/well of RT112 in a volume of 100 μL/well in growth media. • After 24 hours, dilute the compound to 10, 3.3, 1.1, 0.37, 0.12, 0.04, 0.013, 0.004 μM, keeping the DMSO concentration at 5%. • Add 10 μL of 8-point compound series to the wells of culturing cells. • Incubate at 37° C. and 5% CO2 for 72 hours • Add 10 μL/well of CCkit8 and incubate at 37° C. and 5% CO2 for an hour • Detect the optical density of each well at 450 nm on Labsystems Multiskan K3.
(§4) • ODcompound well represents the optical density of cells treated with compound. • ODcell well represents the optical density of cells without compounds treatment. (only 0.5% DMSO) • ODcontrol well represents the optical density of culture media background
(§5) The concentration of compound providing 50% of proliferation inhibition was calculated using Excel Fit.

SNU-16 = assay: Cellular Proliferation Assay (Cell Counting Kit-8), SNU-16; type: cell-based; conditions: Homo sapiens, SNU-16 cells, 72 hours
Description: as §1, §2, §3, §4, §5

Recombinant human FGFR2 = Recombinant human FGFR2 (Homo sapiens, UniProt P21802); assay: Transcreener Kinase Assay of FGFR2; type: biochemical
Description: Transcreener Kinase Assay of FGFR2
• Compounds were solved in DMSO and were diluted with assay buffer to 5 folds of final concentration keeping the DMSO concentration at 5%. Further dilution are needed to make final concentrations are at 1, 0.33, 0.11, 0.037, 0.012, 0.004, 0.0014, 0.0005 μM; (the final concentration of DMSO is 1%). • Enzyme/Substrate stock Preparation: Recombinant human FGFR2 and Poly E4Y are both diluted in assay buffer. The final concentration is 0.3 ng/μL for FGFR2 and 62.5 ng/μL for Poly E4Y. The mixture is being kept in ice before use; • Prepare ATP Diluents, 10 mM ATP is diluted in assay buffer, the final concentration is 25 μM; • Prepare ADP Diluents: diluted ADP (500 μM) in assay buffer, the final concentration is 25 μM; • Prepare ATP standard curve stock as following:
• In a 96-well plate, Add 5 μL of compound or control. (positive control: 5 μL of 5% DMSO; negative control: 5 μL of 500 mM EDTA) into desired wells; • Add 10 μL of Enzyme/Substrate stock into each well; • Add 10 μL of ATP Diluents to initiate the enzyme reaction and votex the plate immediately on a plate shaker; • For the wells to make standard curve, add 5 μL of 5% DMSO, 10 μL of assay buffer and 10 μL of ATP standard curve stock. • Incubate the plate for 45 min at 28[…] on a plate shaker in a low speed.
• Detection Mix Preparation: The mixture is made by dilution with MilliQ water; as following: ADP Alexa633 tracer (1:100), ADP antibody (1:158), and stop & detect buffer (1:10); • Tracer Only control Preparation: The mixture is made by dilution with MilliQ water; as following: ADP Alexa633 tracer (1:100), and stop & detect buffer (1:10) • No Tracer control Preparation: stop & detect buffer is diluted with MilliQ water; by 10 fold. • Add 25 μL of detection mix, Tracer Only control and No Tracer control into corresponding wells, respectively; • Incubate at 28 °C for 1 h, on a plate shaker in a low speed; • Measure florescence polarization (FP) on TECAN F500. Excitation wavelength: 610 nm, Emission wavelength: 670 nm.
(§6) • [ADP] in Compound well represents the ADP concentration in compound well. • [ADP] in Positive control well represents the ADP concentration in 5% DMSO well • Conversion of mP value to ADP concentration is calculated based on the formula which determined by standard curve. And mP value is measured by following the instruction provided by BellBrook Labs. (www.bellbrooklabs.com). 6. IC50: calculated using XL-Fit 2.0 software.

Recombinant human FGFR1 = Recombinant human FGFR1 (Homo sapiens, UniProt P11362); assay: Transcreener Kinase Assay of FGFR1; type: biochemical
Description: Transcreener Kinase Assay of FGFR1
Prepare Solution • Compounds were solved in DMSO and were diluted with assay buffer to 5 folds of final concentration keeping the DMSO concentration at 5%. Further dilution are needed to make final concentrations are at 1, 0.33, 0.11, 0.037, 0.012, 0.004, 0.0014, 0.0005 μM; (the final concentration of DMSO is 1%). • Enzyme/Substrate stock Preparation: Recombinant human FGFR1 and Poly E4Y are both diluted in assay buffer.
Enzymatic Reaction • In a 96-well plate, Add 5 μL of compound or control. (positive control: 5 μL of 5% DMSO; negative control: 5 μL of 500 mM EDTA) into desired wells; • Add 10 μL of Enzyme/Substrate stock into each well; • Add 10 μL of ATP Diluents to initiate the enzyme reaction and votex the plate immediately on a plate shaker; • For the wells to make standard curve, add 5 μL of 5% DMSO, 10 μL of assay buffer and 10 μL of ATP standard curve stock. • Incubate the plate for 45 min at 28[…] on a plate shaker in a low speed.
Excitation wavelength: 610 nm, Emission wavelength: 670 nm.
as §6

RT-112 = assay: Cellular Proliferation Assay (Cell Counting Kit-8), RT-112; type: cell-based; conditions: Homo sapiens, RT-112 cells, 72 hours
Description: as §1, §2, §3, §4, §5

Chain of Recombinant human FGFR1 (P11362 22-822): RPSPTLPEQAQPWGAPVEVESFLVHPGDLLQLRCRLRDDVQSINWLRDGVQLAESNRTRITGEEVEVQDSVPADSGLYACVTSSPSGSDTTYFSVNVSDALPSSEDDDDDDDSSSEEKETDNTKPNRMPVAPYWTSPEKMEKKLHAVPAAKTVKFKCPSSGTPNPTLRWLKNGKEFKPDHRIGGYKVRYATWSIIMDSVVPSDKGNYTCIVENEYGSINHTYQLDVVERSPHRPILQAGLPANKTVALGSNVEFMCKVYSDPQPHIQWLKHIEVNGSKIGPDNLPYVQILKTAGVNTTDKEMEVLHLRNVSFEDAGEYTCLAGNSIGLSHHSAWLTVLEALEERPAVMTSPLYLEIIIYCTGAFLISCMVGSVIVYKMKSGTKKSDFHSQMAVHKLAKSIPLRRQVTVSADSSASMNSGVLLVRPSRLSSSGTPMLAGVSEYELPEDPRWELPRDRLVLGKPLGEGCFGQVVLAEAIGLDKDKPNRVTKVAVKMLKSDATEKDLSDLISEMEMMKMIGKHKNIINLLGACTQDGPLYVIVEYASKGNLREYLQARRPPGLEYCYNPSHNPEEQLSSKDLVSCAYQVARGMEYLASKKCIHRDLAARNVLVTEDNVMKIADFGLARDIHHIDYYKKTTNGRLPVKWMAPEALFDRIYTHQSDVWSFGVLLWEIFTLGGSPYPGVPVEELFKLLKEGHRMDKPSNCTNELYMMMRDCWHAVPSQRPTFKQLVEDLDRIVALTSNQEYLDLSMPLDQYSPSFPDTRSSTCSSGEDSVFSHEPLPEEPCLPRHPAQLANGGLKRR
Chain of FGFR3 kinase (P22607 23-806): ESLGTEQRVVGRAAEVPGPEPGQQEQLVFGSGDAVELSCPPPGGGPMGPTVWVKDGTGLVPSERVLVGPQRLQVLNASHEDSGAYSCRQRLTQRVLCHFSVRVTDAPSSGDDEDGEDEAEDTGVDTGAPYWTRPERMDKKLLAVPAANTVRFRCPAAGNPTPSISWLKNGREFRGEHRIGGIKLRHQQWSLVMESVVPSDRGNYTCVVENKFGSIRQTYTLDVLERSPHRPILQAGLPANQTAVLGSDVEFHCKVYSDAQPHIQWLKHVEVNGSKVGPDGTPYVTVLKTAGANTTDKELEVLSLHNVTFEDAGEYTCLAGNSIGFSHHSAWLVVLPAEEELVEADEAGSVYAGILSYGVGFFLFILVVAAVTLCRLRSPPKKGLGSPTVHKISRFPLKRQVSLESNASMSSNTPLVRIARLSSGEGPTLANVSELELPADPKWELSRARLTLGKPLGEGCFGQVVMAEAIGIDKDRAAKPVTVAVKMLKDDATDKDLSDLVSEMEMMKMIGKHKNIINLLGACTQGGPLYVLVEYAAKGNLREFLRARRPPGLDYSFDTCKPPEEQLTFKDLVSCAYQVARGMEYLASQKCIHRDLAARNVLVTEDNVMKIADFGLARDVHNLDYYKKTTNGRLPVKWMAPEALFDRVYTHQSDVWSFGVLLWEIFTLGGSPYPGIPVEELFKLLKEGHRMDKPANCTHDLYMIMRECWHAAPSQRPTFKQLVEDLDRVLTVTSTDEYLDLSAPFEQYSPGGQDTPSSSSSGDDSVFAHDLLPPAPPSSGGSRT
Chain of Recombinant human FGFR2 (P21802 22-821): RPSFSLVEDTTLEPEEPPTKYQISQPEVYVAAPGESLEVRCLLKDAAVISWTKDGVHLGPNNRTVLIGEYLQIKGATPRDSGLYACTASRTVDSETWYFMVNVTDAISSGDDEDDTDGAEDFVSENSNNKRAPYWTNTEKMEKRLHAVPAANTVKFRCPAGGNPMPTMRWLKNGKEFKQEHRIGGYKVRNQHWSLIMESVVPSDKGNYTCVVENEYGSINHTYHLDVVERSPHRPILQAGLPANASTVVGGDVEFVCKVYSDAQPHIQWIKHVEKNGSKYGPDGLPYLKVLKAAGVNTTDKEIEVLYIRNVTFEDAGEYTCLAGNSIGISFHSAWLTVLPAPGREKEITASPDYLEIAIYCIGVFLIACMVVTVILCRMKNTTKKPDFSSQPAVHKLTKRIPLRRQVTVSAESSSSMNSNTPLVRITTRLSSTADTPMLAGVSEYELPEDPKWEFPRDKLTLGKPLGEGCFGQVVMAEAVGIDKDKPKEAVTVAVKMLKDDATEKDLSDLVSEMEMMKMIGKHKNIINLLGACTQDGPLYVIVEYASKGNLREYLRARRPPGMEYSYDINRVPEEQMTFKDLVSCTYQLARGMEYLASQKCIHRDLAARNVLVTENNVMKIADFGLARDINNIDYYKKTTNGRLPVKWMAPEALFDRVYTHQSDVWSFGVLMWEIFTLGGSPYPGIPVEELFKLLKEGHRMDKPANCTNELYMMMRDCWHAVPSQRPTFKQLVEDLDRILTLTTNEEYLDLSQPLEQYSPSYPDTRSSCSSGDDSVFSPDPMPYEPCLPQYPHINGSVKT

SMILES	IC50 (FGFR3 kinase) [nM]	IC50 (KG-1) [nM]	IC50 (SNU-16) [nM]	IC50 (Recombinant human FGFR2; read-out: FGFR2 (FP) IC50) [nM]	IC50 (Recombinant human FGFR1; read-out: FGFR1 (FP) IC50) [nM]	IC50 (RT-112) [nM]	IC50 (Recombinant human FGFR2; FGFR2 (FP) IC50) [nM]	IC50 (Recombinant human FGFR1; FGFR1 (FP) IC50) [nM]
CNC(=O)c1cc(CCc2cnc(Nc3cnn(CC(=O)N4CCCC4)c3)nc2)c(F)c(OC)c1 [Compound 143]	203	803	100	7	41	991	–	–
CNC(=O)c1cc(CCc2cnc(Nc3cnn(CCOC)c3)nc2)c(Cl)c(OC)c1 [Compound 127]	9	22	20	5	9	66	–	–
CNC(=O)c1cc(CCc2cnc(Nc3cnn(CC4CCN(C)CC4)c3)nc2)c(F)c(OC)c1 [Compound 137]	7	319	29	6	12	86	–	–
CNC(=O)c1cc(CCc2cnc(Nc3cnn(-c4ccc(C)nc4)c3)nc2)c(Cl)c(OC)c1 [Compound 152]	38	56	29	12	19	88	–	–
CCS(=O)(=O)n1cc(Nc2ncc(CCc3cc(C(=O)NC)cc(OC)c3F)cn2)cn1 [Compound 140, 3-(2-(2-(1-(ethylsulfonyl)-1H-pyrazol-4-ylamino)pyrimidin-5-yl)ethyl)-4-fluoro-5-methoxy-N-methylbenzamide]	60	152	62	16	–	438	–	–
CNC(=O)c1cc(CCc2cnc(Nc3cnn(CC4CC4)c3)nc2)c(F)c(OC)c1 [Compound 141, 3-(2-(2-(1-(cyclopropylmethyl)-1H-pyrazol-4-ylamino)pyrimidin-5-yl)ethyl)-4-fluoro-5-methoxy-N-methylbenzamide]	–	15	–	–	–	112	5	11
CNC(=O)c1cc(COc2cnc(Nc3cnn(C)c3)nc2)c(Cl)c(OC)c1 [Compound 183]	–	9	8	5	7	14	–	–
CCN1CCN(c2ccc(Nc3ncc(CCc4cc(C(=O)NOC)cc(OC)c4C)cn3)cc2)CC1 [Compound 52]	5	4	5	2	1	–	–	–
CNC(=O)c1cc(CCc2cnc(Nc3ccc4nnnn4c3)nc2)c(F)c(OC)c1 [Compound 96]	119	161	150	44	63	–	–	–
CONC(=O)c1cc(CCc2cnc(Nc3ccc(N4C[C@@H](C)N[C@@H](C)C4)cc3)nc2)cc(OC)c1 [Compound 41]	9	38	24	6	4	–	–	–
CCN1CCN(c2cccc(Nc3ncc(CCc4cc(OC)cc(C(=O)NC)c4)cn3)c2)CC1 [Compound 9, 3-(2-(2-((3-(4-ethylpiperazin-1-yl)phenyl)amino)pyrimidin-5-yl)ethyl)-5-methoxy-N-methylbenzamide]	64	98	44	28	38	–	–	–
CCn1cc(Nc2ncc(/C=C/c3cc(C(=O)NC)cc(OC)c3Br)cn2)cn1 [Compound 3]	–	72	134	–	–	370	–	–
CONC(=O)c1cc(CCc2cnc(Nc3ccc(N4CCOCC4)cc3)nc2)cc(OC)c1 [Compound 37]	16	46	44	7	10	–	–	–
CCn1cc(Nc2ncc(OCc3cc(C(=O)NC)cc(OC)c3Cl)cn2)cn1 [Compound 184]	–	5	10	7	9	53	–	–
CNC(=O)c1cc(CCc2cnc(Nc3ccn(C)c(=O)c3)nc2)c(F)c(OC)c1 [Compound 93]	11	125	47	9	18	–	–	–
CONC(=O)c1cc(CCc2cnc(Nc3ccc(Cl)cc3)nc2)cc(OC)c1 [Compound 113]	146	148	89	18	48	–	–	–
CONC(=O)c1cc(CCc2cnc(Nc3ccc(N4CCN(C)[C@H](C)C4)cc3)nc2)cc(OC)c1 [Compound 40]	39	31	48	10	12	–	–	–
CCN1CCN(c2ccc(Nc3ncc(CCc4cc(OC)cc(C(=O)NOCCO)c4)cn3)cc2)CC1 [Compound 20, 3-(2-(2-((4-(4-ethylpiperazin-1-yl)phenyl)amino)pyrimidin-5-yl)ethyl)-N-(2-hydroxyethoxy)-5-methoxybenzamide]	128	589	340	34	43	–	–	–
